Laboratory results from patent publication US10231453B2, “5-substituted imidazole derivatives” (BAYER CROPSCIENCE AKTIENGESELLSCHAFT, priority 2015, dated 2019).
Like-named read-outs stand apart in the source and are kept apart here.

What was measured:
[1] = tested on: Sphaerotheca fuliginea; assay: In vivo preventive test on Sphaerotheca fuliginea (powdery mildew on cucurbits), Examples F and R6; settings: Podosphaera fuliginea, 360 h, preventive spray, evaluated 15 days after inoculation
[2] = tested on: Leptosphaeria nodorum; assay: In vivo preventive Leptosphaeria nodorum test (wheat), Example N; settings: Parastagonospora nodorum, 192 h, 500 ppm of active ingredient, preventive spray, evaluated 8 days after inoculation, read-out: efficacy
Source text: After the spray coating has been dried, the plants are sprayed with a spore suspension of Leptosphaeria nodorum.

[3] = tested on: Septoria tritici; assay: In vivo preventive test on Septoria tritici (leaf spot on wheat), Examples E, Q3 and R5; settings: Zymoseptoria tritici, 576 h, preventive spray, evaluated 24 days after inoculation
[4] = tested on: Fusarium graminearum; assay: whole plant or invertebrate; format: in vivo; settings: in Hordeum vulgare, 120 h, read-out: efficacy
[5] = tested on: Venturia inaequalis; assay: In vivo preventive Venturia test (apples), Example J; settings: 240 h, read-out: efficacy
Protocol: After the spray coating has dried on, the plants are inoculated with an aqueous conidia suspension of the causal agent of apple scab (Venturia inaequalis) and then remain for 1 day in an incubation cabinet at approximately 20° C. and a relative atmospheric humidity of 100%.
The plants are then placed in a greenhouse at approximately 21° C. and a relative atmospheric humidity of approximately 90%.
The test is evaluated 10 days after the inoculation.

[6] = tested on: Uromyces appendiculatus; assay: In vivo preventive test on Uromyces appendiculatus (bean rust), Examples G and R7; settings: 264 h, preventive spray, evaluated 11 days after inoculation
[7] = tested on: Alternaria brassicae; assay: In vivo preventive test on Alternaria brassicae (leaf spot on radish), Examples A and R1; settings: Alternaria brassicae, 144 h; for pest or weed control at 100 ppm: Example R1, rate of application 100 ppm
[8] = tested on: Blumeria graminis fsp. hordei; assay: In vivo preventive Blumeria test (barley), Example K; settings: 168 h, 500 ppm of active ingredient, preventive spray, evaluated 7 days after inoculation, read-out: efficacy
Source text: After the spray coating has been dried, the plants are dusted with spores of Blumeria graminis fsp. hordei.

[9] = tested on: Phakopsora pachyrhizi; assay: In vivo preventive Phakopsora test (soybeans), Example I; settings: 168 h, 100 ppm of active ingredient, preventive spray, evaluated 7 days after inoculation, read-out: efficacy
[10] = tested on: Pyricularia oryzae; assay: whole plant or invertebrate; format: in vivo; settings: 192 h, read-out: efficacy
[11] = tested on: Pyrenophora teres; assay: In vivo preventive test on Pyrenophora teres (net blotch on barley), Examples D, Q2 and R4; settings: Pyrenophora teres, 336 h; for pest or weed control at 100 ppm: Example R4, rate of application 100 ppm
[12] = tested on: Alternaria solani; assay: In vivo preventive Alternaria test (tomatoes), Example H; settings: 72 h, 100 ppm of active ingredient, preventive spray, evaluated 3 days after inoculation, read-out: efficacy
[13] = tested on: Botrytis cinerea; assay: In vivo preventive test on Botrytis cinerea (grey mould) on gherkin, Examples B, Q1 and R2; settings: Botrytis cinerea; for pest or weed control at 100 ppm: Example R2, rate of application 100 ppm
[14] = Measurement of LogP values by HPLC on reversed phase columns (EEC directive 79/831 Annex V.A8); format: physicochemical; settings: method [a]: LC-UV, acidic range, 0.1% formic acid in water and acetonitrile as eluent; Table 1
Protocol: Measurement of Log P values was performed as outlined above.

[15] = tested on: Puccinia recondita; assay: In vivo preventive test on Puccinia recondita (brown rust on wheat), Examples C and R3; settings: Puccinia recondita, 264 h, preventive spray, evaluated 11 days after inoculation
[16] = tested on: Fusarium nivale (var. majus); assay: In vivo preventive Fusarium nivale (var. majus) test (wheat), Example O; settings: Microdochium nivale, 120 h, 500 ppm of active ingredient, preventive spray, evaluated 5 days after inoculation, read-out: efficacy
Source text: After the spray coating has been dried, the plants are slightly injured by using a sandblast and afterwards they are sprayed with a conidia suspension of Fusarium nivale (var. majus).

[17] = 500 ppm of active ingredient, gherkin, read-out: efficacy
[18] = Example R6, gherkin, read-out: Efficacy in %
[19] = Example R6, gherkin, 500 ppm, read-out: Efficacy in %
[20] = 500 ppm of active ingredient, wheat, read-out: efficacy
[21] = Example R5, wheat, read-out: Efficacy in %
[22] = Example R5, wheat, 500 ppm, read-out: Efficacy in %
[23] = 500 ppm of active ingredient, bean, read-out: efficacy
[24] = Example R7, bean, read-out: Efficacy in %
[25] = Example R7, bean, 500 ppm, read-out: Efficacy in %
[26] = 500 ppm of active ingredient, preventive spray, evaluated 6 days after inoculation, read-out: efficacy
[27] = Example R1, rate of application 500 ppm, read-out: Efficacy in %
[28] = 500 ppm of active ingredient, preventive spray, evaluated 14 days after inoculation, read-out: efficacy
[29] = Example R4, rate of application 500 ppm, read-out: Efficacy in %
[30] = 500 ppm of active ingredient, preventive spray, evaluated 4 to 5 days after inoculation, read-out: efficacy
[31] = Example R2, rate of application 500 ppm, read-out: Efficacy in %
[32] = Example R3, wheat, read-out: Efficacy in %
[33] = Example R3, wheat, 500 ppm, read-out: Efficacy in %

For OC(Cc1ccccc1Cl)(Cn1cncc1Br)C1(Cl)CC1 (centres unmarked) [Example I-04], the pest or weed control at 500 ppm [1, 17] was 90 to 100%, the pest or weed control at 100 ppm [1, 18] was 100% and the pest or weed control at 500 ppm [1, 19] was 100%. It also gave a pest or weed control at 500 ppm [2] of 90 to 100%, a pest or weed control at 500 ppm [3, 20] of 90 to 100% and a pest or weed control at 100 ppm [3, 21] of 97%. The pest or weed control at 500 ppm [3, 22] was 100%, the pest or weed control at 500 ppm [4] was 70 to 79% and the pest or weed control at 100 ppm [5] was 90 to 100%. For the same compound, the pest or weed control at 500 ppm [6, 23] was 90 to 100%, the pest or weed control at 100 ppm [6, 24] was 100% and the pest or weed control at 500 ppm [6, 25] was 100%. The pest or weed control at 500 ppm [7, 26] was 70 to 79%, the pest or weed control at 100 ppm ([7]; read-out: Efficacy in %) was 20% and the pest or weed control at 500 ppm [7, 27] was 70%. The pest or weed control at 500 ppm [8] was 90 to 100%, the pest or weed control at 100 ppm [9] was 90 to 100% and the pest or weed control at 500 ppm [10] was 90 to 100%. For the same compound, the pest or weed control at 500 ppm [11, 28] was 90 to 100%, the pest or weed control at 100 ppm ([11]; read-out: Efficacy in %) was 71% and the pest or weed control at 500 ppm [11, 29] was 93%. The pest or weed control at 100 ppm [12] was 90 to 100%, the pest or weed control at 500 ppm [13, 30] was 90 to 100% and the pest or weed control at 100 ppm ([13]; read-out: Efficacy in %) was 90%. It also gave a pest or weed control at 500 ppm [13, 31] of 100%, a chromatographic logP [14] of 2.27 and a pest or weed control at 500 ppm [15, 20] of 90 to 100%. For the same compound, the pest or weed control at 100 ppm [15, 32] was 88%, the pest or weed control at 500 ppm [15, 33] was 94% and the pest or weed control at 500 ppm [16] was 90 to 100%.

In the case of OC(Cc1ccc(F)cc1Cl)(Cn1cncc1Cl)C1(Cl)CC1 (centres unmarked) [Example I-08], the pest or weed control at 500 ppm [1, 17] was 90 to 100%, the pest or weed control at 500 ppm [2] was 90 to 100% and the pest or weed control at 500 ppm [3, 20] was 90 to 100%. For the same compound, the pest or weed control at 500 ppm [4] was 70 to 79%, the pest or weed control at 100 ppm [5] was 90 to 100% and the pest or weed control at 500 ppm [6, 23] was 90 to 100%. It also gave a pest or weed control at 500 ppm [8] of 90 to 100%, a pest or weed control at 100 ppm [9] of 90 to 100% and a pest or weed control at 500 ppm [10] of 70 to 79%. For the same compound, the pest or weed control at 500 ppm [11, 28] was 80 to 89%, the pest or weed control at 100 ppm [12] was 90 to 100% and the pest or weed control at 500 ppm [13, 30] was 90 to 100%. For the same compound, the chromatographic logP [14] was 2.47, the pest or weed control at 500 ppm [15, 20] was 90 to 100% and the pest or weed control at 500 ppm [16] was 90 to 100%.

With OC(Cc1ccccc1F)(Cn1cncc1Cl)C1(Cl)CC1 (centres unmarked) [Example I-32] the pest or weed control at 500 ppm [1, 17] was 90 to 100%, the pest or weed control at 100 ppm [1, 18] was 100% and the pest or weed control at 500 ppm [1, 19] was 100%. It also gave a pest or weed control at 500 ppm [2] of 80 to 89%, a pest or weed control at 500 ppm [3, 20] of 90 to 100% and a pest or weed control at 100 ppm [3, 21] of 71%. For the same compound, the pest or weed control at 500 ppm [3, 22] was 100%, the pest or weed control at 500 ppm [4] was 70 to 79% and the pest or weed control at 100 ppm [5] was 90 to 100%. The pest or weed control at 500 ppm [6, 23] was 90 to 100%, the pest or weed control at 100 ppm [6, 24] was 81% and the pest or weed control at 500 ppm [6, 25] was 100%. For the same compound, the pest or weed control at 500 ppm [7, 26] was 90 to 100%, the pest or weed control at 100 ppm ([7]; read-out: Efficacy in %) was 50% and the pest or weed control at 500 ppm [7, 27] was 92%. For the same compound, the pest or weed control at 500 ppm [8] was 90 to 100%, the pest or weed control at 100 ppm [9] was 90 to 100% and the pest or weed control at 500 ppm [11, 28] was 80 to 89%. It also gave a pest or weed control at 100 ppm ([11]; read-out: Efficacy in %) of 78%, a pest or weed control at 500 ppm [11, 29] of 89% and a pest or weed control at 100 ppm [12] of 90 to 100%. For the same compound, the pest or weed control at 500 ppm [13, 30] was 90 to 100%, the pest or weed control at 100 ppm ([13]; read-out: Efficacy in %) was 99% and the pest or weed control at 500 ppm [13, 31] was 100%. It also gave a chromatographic logP [14] of 2.07, a pest or weed control at 500 ppm [15, 20] of 90 to 100% and a pest or weed control at 100 ppm [15, 32] of 78%. It also gave a pest or weed control at 500 ppm [15, 33] of 94% and a pest or weed control at 500 ppm [16] of 80 to 89%.

For N#Cc1cncn1CC(O)(Cc1ccc(Br)cc1F)C1(Cl)CC1 (centres unmarked) [Example I-42], the pest or weed control at 500 ppm [1, 17] was 90 to 100%, the pest or weed control at 500 ppm [2] was 90 to 100% and the pest or weed control at 500 ppm [3, 20] was 90 to 100%. The pest or weed control at 500 ppm [4] was 80 to 89%, the pest or weed control at 100 ppm [5] was 80 to 89% and the pest or weed control at 500 ppm [6, 23] was 90 to 100%. For the same compound, the pest or weed control at 500 ppm [8] was 90 to 100%, the pest or weed control at 100 ppm [9] was 90 to 100% and the pest or weed control at 500 ppm [10] was 80 to 89%. For the same compound, the pest or weed control at 500 ppm [11, 28] was 70 to 79%, the pest or weed control at 100 ppm [12] was 70 to 79% and the pest or weed control at 500 ppm [13, 30] was 80 to 89%. It also gave a chromatographic logP [14] of 3.24, a pest or weed control at 500 ppm [15, 20] of 90 to 100% and a pest or weed control at 500 ppm [16] of 80 to 89%.
